The values below are quoted from earlier work in PMC3433420 (PLoS ONE, 2012).

The term pKd denotes the negative decadic logarithm of the Kd, by convention in mol/L.

This data set has as its target SH2 and PTB domains. As to conditions: cited from earlier work. The text has this:
Supplement pone.0044471.s022.xlsx, sheet "Most recent PM interactions" | column: Kd || Supplement pone.0044471.s022.xlsx, sheet "All original PM interactions" | column: Kd

pKd: −log10 of the molar value. Like-named read-outs stand apart in the source and are kept apart here.

“AEDEpYVNEPLYLd [ErbB4 pY1202, N-terminally rhodamine-labeled 13-mer phosphopeptide]”: the pKd (protein SYK-N, ref Kaushansky et al. Chem and Biol 2008) was 8.22.

For ALESILHRIpYTHQSDVWd [ErbB1 891], the pKd reads like this: (Protein HSH2D, most recent PM interactions, ref Kaushansky et al. Mol Biosys 2008) 5.95; (Protein TNS4, most recent PM interactions, ref Kaushansky et al. Mol Biosys 2008) 6.52.

As for “DADEpYLIPQQGFd [ErbB1 pY1016, N-terminally rhodamine-labeled 13-mer phosphopeptide]”, the pKd is, setting by setting: (protein ABL2, ref Jones et al. 2006 / Kaushansky et al. Mol Biosys 2008 / Kaushansky et al. Chem and Biol 2008) 6.55; (protein BLK, ref Jones et al. 2006 / Kaushansky et al. Mol Biosys 2008 / Kaushansky et al. Chem and Biol 2008) 6.18; (protein CRK, ref Jones et al. 2006 / Kaushansky et al. Mol Biosys 2008 / Kaushansky et al. Chem and Biol 2008) 6.33; (protein CRKL, ref Jones et al. 2006 / Kaushansky et al. Mol Biosys 2008 / Kaushansky et al. Chem and Biol 2008) 6.00; (protein NCK1, ref Jones et al. 2006 / Kaushansky et al. Mol Biosys 2008 / Kaushansky et al. Chem and Biol 2008) 6.00; (protein NCK2, ref Jones et al. 2006 / Kaushansky et al. Mol Biosys 2008 / Kaushansky et al. Chem and Biol 2008) 5.70. Besides, the pKd reads like this: (protein PIK3R1-C, ref Jones et al. 2006 / Kaushansky et al. Mol Biosys 2008 / Kaushansky et al. Chem and Biol 2008) 6.06; (protein PIK3R1-N, ref Jones et al. 2006 / Kaushansky et al. Mol Biosys 2008 / Kaushansky et al. Chem and Biol 2008) 6.19; (protein PIK3R1-NC, ref Jones et al. 2006 / Kaushansky et al. Mol Biosys 2008 / Kaushansky et al. Chem and Biol 2008) 6.52; (protein PIK3R2-N, ref Jones et al. 2006 / Kaushansky et al. Mol Biosys 2008 / Kaushansky et al. Chem and Biol 2008) 6.37; (protein PIK3R2-NC, ref Jones et al. 2006 / Kaushansky et al. Mol Biosys 2008 / Kaushansky et al. Chem and Biol 2008) 6.46; (protein PIK3R3-C, ref Jones et al. 2006 / Kaushansky et al. Mol Biosys 2008 / Kaushansky et al. Chem and Biol 2008) 6.72. Also, the pKd (protein PIK3R3-N, ref Jones et al. 2006 / Kaushansky et al. Mol Biosys 2008 / Kaushansky et al. Chem and Biol 2008) was 6.33; the pKd (protein PIK3R3-NC, ref Jones et al. 2006 / Kaushansky et al. Mol Biosys 2008 / Kaushansky et al. Chem and Biol 2008) is 6.70; the pKd (protein PLCG1-C, ref Jones et al. 2006 / Kaushansky et al. Mol Biosys 2008 / Kaushansky et al. Chem and Biol 2008) was 5.70; the pKd (protein PLCG1-NC, ref Jones et al. 2006 / Kaushansky et al. Mol Biosys 2008 / Kaushansky et al. Chem and Biol 2008) is 6.10; the pKd (protein PLCG2-NC, ref Jones et al. 2006 / Kaushansky et al. Mol Biosys 2008 / Kaushansky et al. Chem and Biol 2008) was 5.70; the pKd (protein PTPN11-N, ref Jones et al. 2006 / Kaushansky et al. Mol Biosys 2008 / Kaushansky et al. Chem and Biol 2008) is 6.42. In addition, the pKd is 6.11 (protein RASA1-N, ref Jones et al. 2006 / Kaushansky et al. Mol Biosys 2008 / Kaushansky et al. Chem and Biol 2008); 5.85 (protein RASA1-NC, ref Jones et al. 2006 / Kaushansky et al. Mol Biosys 2008 / Kaushansky et al. Chem and Biol 2008); 5.70 (protein SH2D3A, ref Jones et al. 2006 / Kaushansky et al. Mol Biosys 2008 / Kaushansky et al. Chem and Biol 2008); 5.70 (protein SH2D3C, ref Jones et al. 2006 / Kaushansky et al. Mol Biosys 2008 / Kaushansky et al. Chem and Biol 2008); 5.70 (protein SHB, ref Jones et al. 2006 / Kaushansky et al. Mol Biosys 2008 / Kaushansky et al. Chem and Biol 2008); 6.20 (protein SHC1-PTB, ref Jones et al. 2006 / Kaushansky et al. Mol Biosys 2008 / Kaushansky et al. Chem and Biol 2008). The pKd is, setting by setting: (protein SHC2-PTB, ref Jones et al. 2006 / Kaushansky et al. Mol Biosys 2008 / Kaushansky et al. Chem and Biol 2008) 6.18; (protein SHC3, ref Jones et al. 2006 / Kaushansky et al. Mol Biosys 2008 / Kaushansky et al. Chem and Biol 2008) 6.66; (protein SLA, ref Jones et al. 2006 / Kaushansky et al. Mol Biosys 2008 / Kaushansky et al. Chem and Biol 2008) 5.70; (protein SYK-C, ref Jones et al. 2006 / Kaushansky et al. Mol Biosys 2008 / Kaushansky et al. Chem and Biol 2008) 6.03; (protein SYK-NC, ref Jones et al. 2006 / Kaushansky et al. Mol Biosys 2008 / Kaushansky et al. Chem and Biol 2008) 6.28; (protein TENC1, ref Jones et al. 2006 / Kaushansky et al. Mol Biosys 2008 / Kaushansky et al. Chem and Biol 2008) 5.70. For the same substance, the pKd was 6.04 (protein TNS4, ref Jones et al. 2006 / Kaushansky et al. Mol Biosys 2008 / Kaushansky et al. Chem and Biol 2008); 5.98 (protein VAV1, ref Jones et al. 2006 / Kaushansky et al. Mol Biosys 2008 / Kaushansky et al. Chem and Biol 2008); 5.70 (protein VAV2, ref Jones et al. 2006 / Kaushansky et al. Mol Biosys 2008 / Kaushansky et al. Chem and Biol 2008); 5.70 (protein VAV3, ref Jones et al. 2006 / Kaushansky et al. Mol Biosys 2008 / Kaushansky et al. Chem and Biol 2008).
